Values after ≈ are worked out from the molar mass of the structure shown.
What was measured:
Enterococcus faecalis = assay: In vitro antibacterial activity against Enterococcus faecalis; format: functional
Staphylococcus aureus [1] = assay: In vivo efficacy;(sc) tested for protection against staphylococcus infections in mice; format: functional; settings: read-out: PD50
Staphylococcus aureus [2] = assay: In vitro antibacterial activity against Staphylococcus aureus; format: functional
Streptococcus pneumoniae = assay: In vitro antibacterial activity against Streptococcus pneumoniae; format: functional
[3] = Aqueous solubility at neutral pH; format: physicochemical

SMILES	MIC (Enterococcus faecalis)	ED50 (Staphylococcus aureus [1])	MIC (Staphylococcus aureus [2])	MIC (Streptococcus pneumoniae)	solubility [3]
C=C(NC(=O)c1csc(-c2nc3c(cc2OC)-c2nc(cs2)C(=O)N[C@@H]([C@@H](C)O)C(=O)N/C(=C(\C)OC)c2nc(cs2)C(=O)N[C@@H]2c4nc(cs4)C(=O)N[C@@H](COC(=O)c4c5c6c(cccc6n4O)COC(=O)[C@@H](O[C@H]4C[C@](C)(O)[C@H](N(C)C)[C@H](C)O4)[C@H]2OC5)c2nc-3cs2)n1)C(N)=O	0.015 µg/mL (≈ 0.0103 µM)	> 10 mg/kg	0.015 µg/mL (≈ 0.0103 µM)	0.003 µg/mL (≈ 0.00207 µM)	
C=C(NC(=O)c1csc(-c2nc3c(cc2OCOP(=O)(O)O)-c2nc(cs2)C(=O)N[C@@H]([C@@H](C)O)C(=O)N/C(=C(\C)OC)c2nc(cs2)C(=O)N[C@@H]2c4nc(cs4)C(=O)N[C@@H](COC(=O)c4c5c6c(cccc6n4OCOP(=O)(O)O)COC(=O)[C@@H](O[C@H]4C[C@](C)(O)[C@H](N(C)C)[C@H](C)O4)[C@H]2OC5)c2nc-3cs2)n1)C(N)=O	0.25 µg/mL (≈ 0.151 µM)	0.15 mg/kg	0.125 µg/mL (≈ 0.0754 µM)	0.015 µg/mL (≈ 0.00905 µM)	> 2000 µg/mL
C=C(NC(=O)c1csc(-c2nc3c(cc2OCCCS(=O)(=O)O)-c2nc(cs2)C(=O)N[C@@H]([C@@H](C)O)C(=O)N/C(=C(\C)OC)c2nc(cs2)C(=O)N[C@@H]2c4nc(cs4)C(=O)N[C@@H](COC(=O)c4c5c6c(cccc6n4OCCCS(=O)(=O)O)COC(=O)[C@@H](O[C@H]4C[C@](C)(O)[C@H](N(C)C)[C@H](C)O4)[C@H]2OC5)c2nc-3cs2)n1)C(N)=O	128 µg/mL (≈ 76.1 µM)		> 128 µg/mL	0.5 µg/mL (≈ 0.297 µM)	> 2000 µg/mL
C=C(NC(=O)c1csc(-c2nc3c(cc2OCCN2CCOCC2)-c2nc(cs2)C(=O)N[C@@H]([C@@H](C)O)C(=O)N/C(=C(\C)OC)c2nc(cs2)C(=O)N[C@@H]2c4nc(cs4)C(=O)N[C@@H](COC(=O)c4c5c6c(cccc6n4OCCN4CCOCC4)COC(=O)[C@@H](O[C@H]4C[C@](C)(O)[C@H](N(C)C)[C@H](C)O4)[C@H]2OC5)c2nc-3cs2)n1)C(N)=O	0.25 µg/mL (≈ 0.15 µM)	> 10 mg/kg	1 µg/mL (≈ 0.601 µM)	0.03 µg/mL (≈ 0.018 µM)	
C=C(NC(=O)c1csc(-c2nc3c(cc2O)-c2nc(cs2)C(=O)N[C@@H]([C@@H](C)O)C(=O)N/C(=C(\C)OC)c2nc(cs2)C(=O)N[C@@H]2c4nc(cs4)C(=O)N[C@@H](COC(=O)c4c5c6c(cccc6n4OCCCN)COC(=O)[C@@H](O[C@H]4C[C@](C)(O)[C@H](N(C)C)[C@H](C)O4)[C@H]2OC5)c2nc-3cs2)n1)C(N)=O	1 µg/mL (≈ 0.669 µM)	> 10 mg/kg	0.25 µg/mL (≈ 0.167 µM)	0.06 µg/mL (≈ 0.0401 µM)	
C=C(NC(=O)c1csc(-c2nc3c(cc2O)-c2nc(cs2)C(=O)N[C@@H]([C@@H](C)O)C(=O)N/C(=C(\C)OC)c2nc(cs2)C(=O)N[C@@H]2c4nc(cs4)C(=O)N[C@@H](COC(=O)c4c5c6c(cccc6n4OCCOCCOCCOCCOCCOCO)COC(=O)[C@@H](O[C@H]4C[C@](C)(O)[C@H](N(C)C)[C@H](C)O4)[C@H]2OC5)c2nc-3cs2)n1)C(N)=O	0.5 µg/mL (≈ 0.296 µM)	> 10 mg/kg	0.125 µg/mL (≈ 0.0741 µM)	0.007 µg/mL (≈ 0.00415 µM)	
C=C(NC(=O)c1csc(-c2nc3c(cc2O)-c2nc(cs2)C(=O)N[C@@H]([C@@H](C)O)C(=O)N/C(=C(\C)OC)c2nc(cs2)C(=O)N[C@@H]2c4nc(cs4)C(=O)N[C@@H](COC(=O)c4c5c6c(cccc6n4OC)COC(=O)[C@@H](O[C@H]4C[C@](C)(O)[C@H](N(C)C)[C@H](C)O4)[C@H]2OC5)c2nc-3cs2)n1)C(N)=O	0.125 µg/mL (≈ 0.0861 µM)	< 0.62 mg/kg	0.03 µg/mL (≈ 0.0207 µM)	0.003 µg/mL (≈ 0.00207 µM)	
C=C(NC(=O)c1csc(-c2nc3c(cc2O)-c2nc(cs2)C(=O)N[C@@H]([C@@H](C)O)C(=O)N/C(=C(\C)OC)c2nc(cs2)C(=O)N[C@@H]2c4nc(cs4)C(=O)N[C@@H](COC(=O)c4c5c6c(cccc6n4OCCCOC4O[C@H](CO)[C@@H](O)[C@H](O)[C@H]4O)COC(=O)[C@@H](O[C@H]4C[C@](C)(O)[C@H](N(C)C)[C@H](C)O4)[C@H]2OC5)c2nc-3cs2)n1)C(N)=O (stereo partly specified)	> 128 µg/mL	> 10 mg/kg	16 µg/mL (≈ 9.65 µM)	0.06 µg/mL (≈ 0.0362 µM)	
C=C(NC(=O)c1csc(-c2nc3c(cc2O)-c2nc(cs2)C(=O)N[C@@H]([C@@H](C)O)C(=O)N/C(=C(\C)OC)c2nc(cs2)C(=O)N[C@@H]2c4nc(cs4)C(=O)N[C@@H](COC(=O)c4c5c6c(cccc6n4OCP(=O)(OCC)OCC)COC(=O)[C@@H](O[C@H]4C[C@](C)(O)[C@H](N(C)C)[C@H](C)O4)[C@H]2OC5)c2nc-3cs2)n1)C(N)=O	0.03 µg/mL (≈ 0.0189 µM)	1.6 mg/kg	0.015 µg/mL (≈ 0.00945 µM)	0.001 µg/mL (≈ 0.00063 µM)	
C=C(NC(=O)c1csc(-c2nc3c(cc2O)-c2nc(cs2)C(=O)N[C@@H]([C@@H](C)O)C(=O)N/C(=C(\C)OC)c2nc(cs2)C(=O)N[C@@H]2c4nc(cs4)C(=O)N[C@@H](COC(=O)c4c5c6c(cccc6n4OCCCN4CCN(C)CC4)COC(=O)[C@@H](O[C@H]4C[C@](C)(O)[C@H](N(C)C)[C@H](C)O4)[C@H]2OC5)c2nc-3cs2)n1)C(N)=O	1 µg/mL (≈ 0.634 µM)	8.7 mg/kg	1 µg/mL (≈ 0.634 µM)	0.03 µg/mL (≈ 0.019 µM)	
C=C(NC(=O)c1csc(-c2nc3c(cc2OCCCS(=O)(=O)O)-c2nc(cs2)C(=O)N[C@@H]([C@@H](C)O)C(=O)N/C(=C(\C)OC)c2nc(cs2)C(=O)N[C@@H]2c4nc(cs4)C(=O)N[C@@H](COC(=O)c4c5c6c(cccc6n4O)COC(=O)[C@@H](O[C@H]4C[C@](C)(O)[C@H](N(C)C)[C@H](C)O4)[C@H]2OC5)c2nc-3cs2)n1)C(N)=O	32 µg/mL (≈ 20.5 µM)	> 10 mg/kg	2 µg/mL (≈ 1.28 µM)	0.25 µg/mL (≈ 0.16 µM)	
C=C(NC(=O)c1csc(-c2nc3c(cc2OCC(=O)N(C)C)-c2nc(cs2)C(=O)N[C@@H]([C@@H](C)O)C(=O)N/C(=C(\C)OC)c2nc(cs2)C(=O)N[C@@H]2c4nc(cs4)C(=O)N[C@@H](COC(=O)c4c5c6c(cccc6n4OCC(=O)N(C)C)COC(=O)[C@@H](O[C@H]4C[C@](C)(O)[C@H](N(C)C)[C@H](C)O4)[C@H]2OC5)c2nc-3cs2)n1)C(N)=O	4 µg/mL (≈ 2.49 µM)	> 10 mg/kg	8 µg/mL (≈ 4.98 µM)	0.125 µg/mL (≈ 0.0777 µM)	
C=CCOc1cc2c(nc1-c1nc(C(=O)NC(=C)C(N)=O)cs1)-c1csc(n1)[C@@H]1COC(=O)c3c4c5c(cccc5n3OCC=C)COC(=O)[C@@H](O[C@H]3C[C@](C)(O)[C@H](N(C)C)[C@H](C)O3)[C@@H](OC4)[C@H](NC(=O)c3csc(n3)/C(=C(/C)OC)NC(=O)[C@H]([C@@H](C)O)NC(=O)c3csc-2n3)c2nc(cs2)C(=O)N1	0.25 µg/mL (≈ 0.165 µM)	> 10 mg/kg	0.06 µg/mL (≈ 0.0395 µM)	0.0005 µg/mL (≈ 0.000329 µM)	
C=C(NC(=O)c1csc(-c2nc3c(cc2O)-c2nc(cs2)C(=O)N[C@@H]([C@@H](C)O)C(=O)N/C(=C(\C)OC)c2nc(cs2)C(=O)N[C@@H]2c4nc(cs4)C(=O)N[C@@H](COC(=O)c4c5c6c(cccc6n4OCOP(=O)(OC(C)(C)C)OC(C)(C)C)COC(=O)[C@@H](O[C@H]4C[C@](C)(O)[C@H](N(C)C)[C@H](C)O4)[C@H]2OC5)c2nc-3cs2)n1)C(N)=O	0.015 µg/mL (≈ 0.00904 µM)	3 mg/kg	0.125 µg/mL (≈ 0.0753 µM)	0.015 µg/mL (≈ 0.00904 µM)	> 2000 µg/mL
C=C(NC(=O)c1csc(-c2nc3c(cc2O)-c2nc(cs2)C(=O)N[C@@H]([C@@H](C)O)C(=O)N/C(=C(\C)OC)c2nc(cs2)C(=O)N[C@@H]2c4nc(cs4)C(=O)N[C@@H](COC(=O)c4c5c6c(cccc6n4OCCC[N+](C)(C)C)COC(=O)[C@@H](O[C@H]4C[C@](C)(O)[C@H](N(C)C)[C@H](C)O4)[C@H]2OC5)c2nc-3cs2)n1)C(N)=O	2 µg/mL	> 10 mg/kg	> 128 µg/mL	0.5 µg/mL	
C=C(NC(=O)c1csc(-c2nc3c(cc2O)-c2nc(cs2)C(=O)N[C@@H]([C@@H](C)O)C(=O)N/C(=C(\C)OC)c2nc(cs2)C(=O)N[C@@H]2c4nc(cs4)C(=O)N[C@@H](COC(=O)c4c5c6c(cccc6n4OCCn4ccnc4)COC(=O)[C@@H](O[C@H]4C[C@](C)(O)[C@H](N(C)C)[C@H](C)O4)[C@H]2OC5)c2nc-3cs2)n1)C(N)=O	1 µg/mL (≈ 0.653 µM)	> 10 mg/kg	0.5 µg/mL (≈ 0.326 µM)	0.015 µg/mL (≈ 0.00979 µM)	
C=C(NC(=O)c1csc(-c2nc3c(cc2O)-c2nc(cs2)C(=O)N[C@@H]([C@@H](C)O)C(=O)N/C(=C(\C)OC)c2nc(cs2)C(=O)N[C@@H]2c4nc(cs4)C(=O)N[C@@H](COC(=O)c4c5c6c(cccc6n4OCCCS(=O)(=O)O)COC(=O)[C@@H](O[C@H]4C[C@](C)(O)[C@H](N(C)C)[C@H](C)O4)[C@H]2OC5)c2nc-3cs2)n1)C(N)=O	0.125 µg/mL (≈ 0.0801 µM)	4 mg/kg	0.125 µg/mL (≈ 0.0801 µM)	0.007 µg/mL (≈ 0.00449 µM)	> 2000 µg/mL
C=C(NC(=O)c1csc(-c2nc3c(cc2O)-c2nc(cs2)C(=O)N[C@@H]([C@@H](C)O)C(=O)N/C(=C(\C)OC)c2nc(cs2)C(=O)N[C@@H]2c4nc(cs4)C(=O)N[C@@H](COC(=O)c4c5c6c(cccc6n4OCCC(=O)O)COC(=O)[C@@H](O[C@H]4C[C@](C)(O)[C@H](N(C)C)[C@H](C)O4)[C@H]2OC5)c2nc-3cs2)n1)C(N)=O	0.25 µg/mL (≈ 0.166 µM)	10 mg/kg	0.125 µg/mL (≈ 0.0828 µM)	0.03 µg/mL (≈ 0.0199 µM)	~70 µg/mL (≈ 46.4 µM)
